# B1: nemolizumab: an IL-31 inhibitor; anti-IL-31 antibody (antibody, chains of the INN, looked up)
# heavy: QVQLVQSGAEVKKPGASVKVSCKASGYTFTGYIMNWVRQAPGQGLEWMGLINPYNGGTDYNPQFQDRVTITADKSTSTAYMELSSLRSEDTAVYYCARDGYDDGPYTLETWGQGTLVTVSSASTKGPSVFPLAPSSKSTSGGTAALGCLVKDYFPEPVTVSWNSGALTSGVHTFPAVLQSSGLYSLSSVVTVPSSNFGTQTYTCNVDHKPSNTKVDKTVERKSCVECPPCPAPPVAGPSVFLFPPKPKDTLMISRTPEVTCVVVDVSQEDPEVQFNWYVDGVEVHNAKTKPREEQFNSTFRVVSVLTVVHQDWLNGKEYKCKVSNKGLPAPIEKTISKTKGQPREPQVYTLPPSQEEMTKNQVSLTCLVKGFYPSDIAVEWESNGQPENNYKTTPPMLDSDGSFFLYSKLTVDKSRWQEGNVFSCSVMHEALHNHYTQKSLSLSP
# light: DIQMTQSPSSLSASVGDRVTITCQASEDIYSFVAWYQQKPGKAPKLLIYNAQTEAQGVPSRFSGSGSGTDFTLTISSLQPEDFATYYCQHHYDSPLTFGGGTKVEIKRTVAAPSVFIFPPSDEQLKSGTASVVCLLNNFYPREAKVQWKVDNALQSGNSQESVTEQDSKDSTYSLSSTLTLSKADYEKHKVYACEVTHQGLSSPVTKSFNRGEC
# Tests used:
# [1] = test system: skin biopsies from active disease, untreated, prurigo nodularis patients; experiment: Ruxolitinib-mediated pharmacological inhibition of PN pathophysiology: proteins secreted by cultured PN skin explants, Procarta Multiplex Immunoassay; type: cell-based, human; conditions: for percent inhibition of IFN-gamma / percent inhibition of IL-2 / percent inhibition of IL-8 (CXCL8) / percent inhibition of IL-10 / percent inhibition of IL-17 alpha (CTLA-8) / percent inhibition of IP-10 (CXCL10): culture supernatant vs DMSO
# Experimental: Full-thickness cutaneous skin biopsies were obtained from active disease, untreated, prurigo nodularis patients. Single 4 mm-punch biopsies were obtained from the same lesion for each patient and longitudinally divided into two pieces (see FIG. 1). FIG. 1 depicts a representation of skin punch biopsies used for the JAK1/JAK2 mediated pharmacological inhibition of PN pathophysiology. Biopsies were cultured for 8 days in KBM media+CaCl2 and refreshed every 2-3 days. Ruxolitinib phosphate or DMSO (control) was added to the cell culture media. Conditioned supernatants collected during/prior to media refresh were stored at −80° C. for subsequent analysis. On day 8, cultures were terminated and tissue RNA isolated for subsequent analysis.
# Collected supernatants were analyzed to quantify chemokines, cytokines, and growth factors secreted by skin explants in culture and which are involved in inflammation. A total of 51 proteins were detected and quantified in culture supernatants by Procarta Multiplex Immunoassay (Thermo Fisher, Waltham, MA). Supernatants and standards were incubated at 4° C. overnight. Assay plates were read on a Luminex 200 Instrument (Luminex Corporation, Austin, TX). The concentration was extrapolated from the antigen standard curve of each analyte. The percent inhibition determined for each analyte as the difference in protein concentration in cultures with DMSO (CD) versus those with ruxolitinib (CJ), (CD−CJ)/CD (see FIG. 2).
# [2] = Solubility of ruxolitinib free base or 1:1 phosphate salt in potential solvents (HPLC); type: physicochemical; conditions: room temperature, 24 hours
# Experimental: First, in order to determine the solubility of ruxolitinib (free base) or its 1:1 phosphate salt, approximately 5 mL of a potential solvent was added to approximately 50 mg of the API or its salt at room temperature. The mixtures were suspended and rotated on a wheel. If the mixtures became clear solutions, more solid material was added. The suspensions were then suspended over 24 hours. The samples were filtered through 0.2 micron filters. The liquid portions were collected and diluted with 50/50 water methanol/water. The concentrations of the diluted samples were analyzed by HPLC. When the free base or salt was fairly insoluble, the results are approximate only.
# [3] = test system: PN skin; conditions: PN skin cultured with nemolizumab; cited from earlier work
# [4] = test system: PN patients; conditions: inhibition of IL-31; cited from earlier work
molecule,measurement,setting,value
N#CC[C@H](C1CCCC1)n1cc(-c2ncnc3[nH]ccc23)cn1 [ruxolitinib],percent inhibition of IFN-gamma,[1]; 48 hr,5.0%
same,percent inhibition of IL-2,[1]; 48 hr,17.8%
same,percent inhibition of IL-8 (CXCL8),[1]; 48 hr,13.7%
same,percent inhibition of IL-10,[1]; 48 hr,36.2%
same,percent inhibition of IL-17 alpha (CTLA-8),[1]; 48 hr,63.9%
same,percent inhibition of IP-10 (CXCL10),[1]; 48 hr,9.7%
same,percent inhibition of IFN-gamma,[1]; 96 hr,11.6%
same,percent inhibition of IL-2,[1]; 96 hr,16.6%
same,percent inhibition of IL-8 (CXCL8),[1]; 96 hr,** (no measureable inhibition)
same,percent inhibition of IL-10,[1]; 96 hr,39.9%
same,percent inhibition of IL-17 alpha (CTLA-8),[1]; 96 hr,57.6%
same,percent inhibition of IP-10 (CXCL10),[1]; 96 hr,60.3%
same,Solubility,"[2]; C12-15 alcohol benzoate, approximate, listed as Free Base",150 µg/mL
same,Solubility,"[2]; Caprylic triglyceride, approximate, listed as Free Base",150 µg/mL
same,Solubility,"[2]; Dimethicone, approximate, listed as Free Base",150 µg/mL
same,Solubility,"[2]; Isopropanol, listed as Free Base",450 µg/mL
same,Solubility,"[2]; Isopropyl myristate, approximate",80 µg/mL
same,Solubility,"[2]; Isosorbide dimethyl ether, listed as Free Base",300 µg/mL
same,Solubility,"[2]; Mineral oil, approximate",80 µg/mL
same,Solubility,"[2]; Olelyl alcohol, approximate, listed as Free Base",80 µg/mL
same,Solubility,"[2]; Propylene glycol, listed as Free Base",18200 µg/mL
same,Solubility,[2]; Water/glycerin/trolamine (40/40/20),13600 µg/mL
"Cc1n[nH]c(C)c1-c1cnn(C2(CC#N)CN(c3cc(F)c(C(=O)N[C@@H](C)C(F)(F)F)cc3F)C2)c1 [4-[3-(cyanomethyl)-3-(3′,5′-dimethyl-1H,1′H-4,4′-bipyrazol-1-yl)azetidin-1-yl]-2,5-difluoro-N-[(1S)-2,2,2-trifluoro-1-methylethyl]benzamide]",percent inhibition of IL-5,"[1]; 48 hours, same assays",20.25%
same,percent inhibition of IL-22,"[1]; 48 hours, same assays",11.16%
B1,IL-17 levels in lesional skin,[3],reduction in IL-17 levels
same,pruritus and skin lesions in PN patients,[4],improvement in pruritus and skin lesions
